Our source for the TGI values is PubChem BioAssay (NCI).

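Grown in 96-well plates, cells were treated for 48 hours with each compound at five concentrations. Insufficient inhibition: endpoint recorded as highest concentration tested. The concentration for full growth arrest is given as TGI.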

Among the test systems are HT29 colon; HCC-2998 colon; OVCAR-4 ovarian; A498 renal; KM12 colon; SW-620 colon; UACC-257 melanoma; M14 melanoma; A549 NSCLC; LOX IMVI melanoma; HL-60(TB) leukemia; MCF7 breast; SF-539 CNS; OVCAR-3 ovarian; HS 578T breast; HOP-92 NSCLC; SK-OV-3 ovarian; SNB-75 CNS.
What all share (test): inhibition of tumour cell growth, NCI panel, 48 h

In the case of `O=c1oc2ccc([N+](=O)[O-])cc2cc1Br`, the TGI with HT29 colon, in the assay on HCC-2998 colon, with OVCAR-4 ovarian, in the assay with A498 renal, in the assay on KM12 colon and in the assay with SW-620 colon was above 100 µM throughout. The TGI in the assay with UACC-257 melanoma, in the assay with M14 melanoma, in the assay with A549 NSCLC, with LOX IMVI melanoma, in the assay on HL-60(TB) leukemia and with MCF7 breast was above 100 µM each time. For the same compound, the TGI in the assay with SF-539 CNS, in the assay on OVCAR-3 ovarian, with HS 578T breast and in the assay with HOP-92 NSCLC was above 100 µM throughout.

As for `CC1(C)OC(=O)C(Cc2ccccc2)(Cc2ccccc2)C(=O)O1`, the TGI in the assay with SK-OV-3 ovarian, in the assay with HT29 colon, in the assay with SNB-75 CNS, in the assay on HCC-2998 colon, with OVCAR-4 ovarian and in the assay with KM12 colon was above 100 µM each time. Besides, the TGI in the assay on SW-620 colon, with UACC-257 melanoma, with M14 melanoma, with A549 NSCLC, with LOX IMVI melanoma and in the assay with HL-60(TB) leukemia was above 100 µM in each case. Further, the TGI in the assay on MCF7 breast, in the assay with SF-539 CNS and with HS 578T breast was above 100 µM throughout.

As to `COC1=CC(=O)C2=C(C[C@@]3(C)C(=C2)C(CO)=CC[C@H]3O)C1=O`, the TGI with SK-OV-3 ovarian is above 100 µM; in the assay on HT29 colon, above 100 µM; in the assay on HCC-2998 colon, 83.1 µM; with OVCAR-4 ovarian, 31.8 µM; in the assay on A498 renal it was above 100 µM; in the assay with KM12 colon it was above 100 µM. Further, the TGI in the assay on SW-620 colon is 60.6 µM; in the assay on UACC-257 melanoma, 36.9 µM; in the assay with M14 melanoma, 44.2 µM; in the assay with A549 NSCLC, above 100 µM; with LOX IMVI melanoma, 38.9 µM; in the assay with HL-60(TB) leukemia, 14.1 µM. The TGI with MCF7 breast is 32.3 µM; with SF-539 CNS, 34.7 µM; in the assay with OVCAR-3 ovarian it was 56.2 µM; in the assay with HS 578T breast, above 100 µM; in the assay with HOP-92 NSCLC it was 24.5 µM.

Regarding `COc1ccc(/C(=N\Nc2ccccn2)c2ccccn2)cc1`, the TGI in the assay with SK-OV-3 ovarian is 10.1 µM; in the assay with HT29 colon, 14 µM; in the assay with SNB-75 CNS it was 8.01 µM; with HCC-2998 colon, 35.9 µM; in the assay on OVCAR-4 ovarian, 42.9 µM; in the assay with A498 renal, above 100 µM. Besides, the TGI is above 32.3 µM in the assay with KM12 colon; 30.4 µM with SW-620 colon; 17.4 µM with UACC-257 melanoma; 3.76 µM in the assay on M14 melanoma; 11.1 µM in the assay with A549 NSCLC; 18.4 µM in the assay on HL-60(TB) leukemia. Further, the TGI is 49.7 µM with MCF7 breast; 6.6 µM in the assay with SF-539 CNS; 19.5 µM in the assay with OVCAR-3 ovarian; 18.4 µM in the assay on HS 578T breast; above 24.3 µM with HOP-92 NSCLC.

With `CC[C@H](C)[C@H](NC(=O)[C@@]1(O)[C@H](O)[C@]2(CC)C=CCN3CC[C@@]4(c5cc(Br)c(OC)cc5N(C)[C@@H]14)[C@@H]32)C(=O)OC`, the TGI was above 100 µM with SK-OV-3 ovarian; 30.5 µM in the assay with HT29 colon; 87.7 µM with HCC-2998 colon; 50 µM with OVCAR-4 ovarian; above 100 µM in the assay on A498 renal; above 100 µM in the assay on KM12 colon. The TGI was above 100 µM with SW-620 colon; 62.1 µM with UACC-257 melanoma; 84.5 µM in the assay with M14 melanoma; above 100 µM with A549 NSCLC; 35.5 µM in the assay with LOX IMVI melanoma; 70.8 µM in the assay with HL-60(TB) leukemia. Moreover, the TGI with MCF7 breast was above 100 µM; in the assay with SF-539 CNS it was 91.3 µM; in the assay with OVCAR-3 ovarian, above 100 µM; in the assay on HS 578T breast it was 77.1 µM.

Turning to `Cc1csc(NNC(=O)Nc2ccccc2)n1`, the TGI with SK-OV-3 ovarian, in the assay with HT29 colon, in the assay with SNB-75 CNS, in the assay on HCC-2998 colon, with OVCAR-4 ovarian and in the assay on A498 renal was above 100 µM in each case. For the same compound, the TGI with KM12 colon, with SW-620 colon, with UACC-257 melanoma, with M14 melanoma, in the assay on A549 NSCLC and with LOX IMVI melanoma was above 100 µM in each case. The TGI in the assay with HL-60(TB) leukemia, in the assay on MCF7 breast, in the assay on SF-539 CNS and in the assay with HS 578T breast was above 100 µM in each case.

Take `N#Cc1ccc(C2NN=CC23C(=O)c2ccccc2OC3c2ccccc2)cc1` (stereo not drawn): the TGI in the assay with SK-OV-3 ovarian, in the assay with HT29 colon, in the assay on HCC-2998 colon, in the assay on OVCAR-4 ovarian, in the assay on A498 renal and with KM12 colon was above 100 µM each time. In addition, the TGI with SW-620 colon, in the assay with UACC-257 melanoma, in the assay on M14 melanoma, in the assay with A549 NSCLC, with LOX IMVI melanoma and in the assay on HL-60(TB) leukemia was above 100 µM throughout. Also, the TGI in the assay on MCF7 breast is 87.4 µM; in the assay on SF-539 CNS, above 100 µM; in the assay on OVCAR-3 ovarian, above 100 µM; in the assay with HS 578T breast it was above 100 µM.

As to `CC(C)[C@@H](C)[C@@]1(C)C[C@@H]1[C@@H](C)[C@H]1CC[C@@H]([C@@H]2CC=C3C[C@@H](O)CC[C@]3(C)C2=O)[C@]1(C)CCO`, the TGI in the assay with HT29 colon is 7.39 µM; in the assay on SNB-75 CNS it was 17.9 µM; in the assay on HCC-2998 colon it was 16.4 µM; with OVCAR-4 ovarian, 24.8 µM; with A498 renal it was 28.7 µM; with KM12 colon, 13 µM. Also, the TGI was 20.1 µM in the assay with SW-620 colon; 27.4 µM in the assay on UACC-257 melanoma; 15.4 µM in the assay on LOX IMVI melanoma; 5.2 µM in the assay on HL-60(TB) leukemia; 22.8 µM with MCF7 breast; 25.3 µM in the assay with SF-539 CNS. The TGI in the assay on OVCAR-3 ovarian is 25.6 µM; in the assay on HS 578T breast, 25.2 µM.

As to `CCCCc1ccc(C#CC#Cc2ccc(CCCC)s2)s1`, the TGI with SK-OV-3 ovarian, in the assay with HT29 colon, in the assay on SNB-75 CNS, with HCC-2998 colon, in the assay with OVCAR-4 ovarian and in the assay with A498 renal was above 100 µM each time. In addition, the TGI in the assay on KM12 colon, with SW-620 colon, with UACC-257 melanoma, in the assay on M14 melanoma, in the assay with HL-60(TB) leukemia and in the assay on MCF7 breast was above 100 µM throughout. The TGI in the assay with SF-539 CNS, in the assay with OVCAR-3 ovarian, with HS 578T breast and in the assay on HOP-92 NSCLC was above 100 µM in each case.
